This passage reports Binding % results from patent publication US10646488B2 (Araxes Pharma LLC, priority 2016, dated 2020).

In the first test the target is T1, KRAS G12C 1-169, his-tagged protein, GDP-loaded (Homo sapiens, UniProt P01116, G12C).
T1 construct: KRAS G12C 1-169, his-tagged protein, GDP-loaded
The test can be described thus: Covalent binding (% modification) to KRAS G12C by mass spectrometry. Further: test concentration or dose not given here. The settings on record: covalent binding to KRAS G12C after a ten minute incubation period.
With `C=CC(=O)N1[C@H](C)CN(c2nc(OCCN(CC)CC)nc3c(F)c(-c4c(C)ccc5[nH]ncc45)c(Cl)cc23)C[C@@H]1C` [Compound 46, 1-((2R,6S)-4-(6-Chloro-2-(2-(Diethylamino)Ethoxy)-8-Fluoro-7-(5-Methyl-1H-Indazol-4-Yl)Quinazolin-4-Yl)-2,6-Dimethylpiperazin-1-Yl)Prop-2-En-1-One], the Binding % result is “++ (++ indicates binding activity from 50 to 90%)”. In the case of `C=CC(=O)N1CCN(c2c(C#N)c(N3CC(N(C)C)C3)nc3c(F)c(-c4c(O)cccc4F)c(Cl)cc23)C[C@H]1C` [Compound 76], the Binding % result was “+ (+ indicates binding activity up to 50%)”.

Take `C=CC(=O)N1CCN(c2nc(N)nc3c(F)c(-c4c(C)ccc5cn[nH]c45)c(Cl)cc23)[C@@H](C)C1` [Compound 5, 1-((3S)-4-(2-amino-6-chloro-8-fluoro-7-(6-methyl-1H-indazol-7-yl)quinazolin-4-yl)-3-methylpiperazin-1-yl)prop-2-en-1-one]: the Binding % result was “++ (++ indicates binding activity from 50 to 90%)”.

The same test, now with this note: covalent binding to KRAS G12C after a three minute incubation period.
Turning to `C=CC(=O)N1C[C@H](C)N(c2nc(N3CC(N(C)C)C3)nc3c(F)c(-c4c(C)ccc5[nH]ncc45)c(Cl)cc23)C[C@H]1C` (atropisomer, axis not shown) [Compound 131, 1-((2R,5S)-4-(6-chloro-2-(3-(dimethylamino)azetidin-1-yl)-8-fluoro-7-((S)-5-methyl-1H-indazol-4-yl)quinazolin-4-yl)-2,5-dimethyl-piperazin-1-yl) prop-2-en-1-one], the Binding % result is “+ (+ indicates binding activity greater than 0% and up to 50%)”.

As for `C=CC(=O)N1C[C@H](C)N(c2nc(OCCN(CC)CC)nc3c(F)c(-c4c(C)ccc5cn[nH]c45)c(Cl)cc23)C[C@H]1C` [Compound 136, 1-((2R,5S)-4-(6-chloro-2-(2-(diethylamino)ethoxy)-8-fluoro-7-(6-methyl-1H-indazol-7-yl)quinazolin-4-yl)-2,5-dimethyl-piperazin-1-yl) prop-2-en-1-one], the Binding % entry is “+++ (+++ indicates binding activity greater than 90%)”.

In the case of `[2H]C([2H])([2H])N(C1CN(c2nc(N3C[C@@H](C)N(C(=O)C=C)C[C@@H]3C)c3cc(Cl)c(-c4c(O)cccc4F)c(F)c3n2)C1)C([2H])([2H])[2H]` [Compound 196, 1-((2R,5S)-4-(2-(3-(bis (trideuteromethyl)amino)azetidin-1-yl)-6-chloro-8-fluoro-7-(2-fluoro-6-hydroxyphenyl)quinazolin-4-yl)-2,5-dimethyl-piperazin-1-yl) prop-2-en-1-one], the Binding % entry is given as “+++ (+++ indicates binding activity greater than 90%)”. The same measure, in the same setting: for `C=CC(=O)N1C[C@H](C)N(c2nc(N3CC(N4CCC(F)(F)C4)C3)nc3c(F)c(-c4c(O)cccc4F)c(Cl)cc23)C[C@H]1C` [Compound 103, 1-((2R,5S)-4-(6-chloro-2-(3-(3,3-difluoro-pyrrolidin-1-yl)azetidin-1-yl)-8-fluoro-7-(2-fluoro-6-hydroxyphenyl)quinazolin-4-yl)-2,5-dimethyl-piperazin-1-yl) prop-2-en-1-one] the value was “+ (+ indicates binding activity greater than 0% and up to 50%)”; for `C=CC(=O)N1C[C@H](C)N(c2nc(OCCCN3CCC(F)(F)C3)nc3c(F)c(-c4cc(O)cc5ccccc45)c(Cl)cc23)C[C@H]1C` [Compound 221, 1-((2R,5S)-4-(6-chloro-2-(3-(3,3-difluoropyrrolidin-1-yl)propoxy)-8-fluoro-7-(3-hydroxynaphthalen-1-yl)quinazolin-4-yl)-2,5-dimethyl-piperazin-1-yl) prop-2-en-1-one], “+ (+ indicates binding activity greater than 0% and up to 50%)”.

For `C=CC(=O)N1C[C@H](C)N(c2nc(N3CC4(CCN(C5CC5)CC4)C3)nc3c(F)c(-c4c(C)ccc5[nH]ncc45)c(Cl)cc23)C[C@H]1C` [Compound 200, 1-((2R,5S)-4-(6-chloro-2-(7-cyclopropyl-2,7-diazaspiro[3.5]nonan-2-yl)-8-fluoro-7-(5-methyl-1H-indazol-4-yl)quinazolin-4-yl)-2,5-dimethyl-piperazin-1-yl) prop-2-en-1-one], the Binding % result is reported as “++ (++ indicates binding activity from 50 to 90%)”.
